{
  "source": "patent US11259522B2",
  "about": "“Control of resistant pests” (priority 2017, dated 2022)",
  "key": {"[1]": {"tested_on": "Rhipicephalus microplus larvae, susceptible non-resistant field strain (NRFS)", "experiment": "Larval packet test (LPT), cattle tick larvae, susceptible strain", "assay_type": "in vivo", "conditions": "for LC50 (ppm) / LC99 (ppm): NRFS, Probit analysis; for mortality at 10000 ppm: 10,000 ppm; for mortality at 2.5 ppm: 2.500 ppm; for mortality at 5000 ppm: 5,000 ppm", "method": "The larval packet test (LPT) is a modification of that first described by Stone and Haydock (1962, Bull. Entomol. Res., 563-578, http://dx.doi.org/10.1017/5000748530004832X) for evaluation of field resistance in cattle tick (Rhipicephalus microplus) larvae.\nThe first LPT assay was conducted to identify the potential range of flavesone acaricidal activity against larvae of a susceptible non-resistant field strain (NRFS) of R. microplus as a reference strain using a wide range of concentrations (1 in 10 in series).\nThe test compound, flavesone, 6-isobutyryl-2,2,4,4-tetramethylcyclohexane-1,3,5-trione, 96.7%, was used. As its volatility/evaporative properties were unknown, the LPT method was modified to incorporate the use of suitably-sized polyethylene plastic sheets to envelop the larval packets, minimizing exposure of the test active to the atmosphere.\nIn addition, the use of the solvent trichloroethylene (TCE) was removed to avoid the time required for evaporation in the preparation of test papers. The test solutions were prepared in olive oil only at the diluent and the papers immediately enveloped in the plastic sheets and sealed with bulldog clips to minimize evaporation.\nA stock solution with a concentration of 100,000 ppm (10%) flavesone was prepared in olive oil as the diluent (1.035 mL flavesone (96.7%) to 8.965 mL olive oil) and then further diluted 1 in 10 in series to also give 10,000 ppm, 1,000 ppm, 100 ppm, 10 ppm and 1 ppm concentration. The negative control was olive oil only. No positive control was included in this experiment. Due to the viscosity of the olive oil, all solutions were prepared using reverse pipetting technique.\nFilter papers (75 mm×85 mm Whatman® No. 541), with grid patterns, were impregnated on ½ of the paper with 225 μL of each solution using a micro-pipette and immediately folded in half, enveloped in polyethylene plastic and sealed with 3 bulldog clips. The impregnated papers were kept at room temperature on aluminium trays for a minimum of 60 minutes to allow for dispersal across the grid pattern of the paper prior to aliquoting of larvae. The packets were prepared in duplicate for each concentration, including the negative control.\nAn 8 dram vial containing approximately 20,000 hatched 7-21 day old NRFS larvae (about 1 g eggs) was opened and set up on a moated tray with a small amount of detergenated water, about 15 to 30 minute before use. Only larvae that migrated to the top of the vial were used in the assay.\nAliquots of approximately 100 larvae were placed into each packet using plastic disposable forceps and the packets resealed and incubated and 27° C. and 85% relative humidity (RH).\nAfter 24 hours, the larval packets were opened and the numbers of dead and live larvae were counted under a magnification lamp. Percentage mortality was calculated and, where applicable, corrected using Abbott's Formula (Abbott, 1925, J. Economic Entomology, 18:256-257): […]\nLC50 and LC99 values were determined by Probit mortality vs log concentration analysis. Probit values were derived from “Transformation of Percentages to Probit's Tables” published by Fisher R. A. and Yates F. (1938).\nThe LPT Assay of Example 1 was repeated using a narrow range of concentrations, 1 in 2 series, of flavesone to determine LC50 and LC99 values against the susceptible NRFS and the multi-resistant Tiaro reference strain.\nThe stock solution of flavesone (100,000 ppm) was diluted 1 in 10 with olive oil (1 mL to 9 mL diluent) to give 10,000 ppm, which was then further diluted 1 in 2 in series (5 mL to 5 mL diluent) to give 5,000 ppm, 2,500 ppm, 1,250 ppm, 625 ppm, 312.5 ppm and 156.25 ppm concentrations. […]"}, "[2]": {"tested_on": "Halotydeus destructor resistant population (synthetic pyrethroid resistance)", "experiment": "Coated plastic vial bioassay, redlegged earth mite, resistant population", "assay_type": "in vivo", "method": "The test compositions included 0.1% Tween 20 non-ionic surfactant to aid the spread of insecticides when coating plastic vials. This concentration of Tween 20 has been previously shown to have no toxic effect on H. destructor. For each insecticide concentration tested, 3, 10, 30, 100, 300, 1000, 3000 and 10000 mg a.i./L (ppm), approximately 10 mL of solution was poured into a 15 mL plastic vial and swirled to ensure a complete coating, with excess liquid removed. Eight vials were coated per concentration and were left to dry overnight. Control vials were treated in the same way but with water used in place of test composition.\nEight susceptible H. destructor mites were then placed into each vial along with a leaf of common vetch (Vicia sativa). The leaf was added to provide food and increase humidity. Vials were then sealed with a lid and placed at 18° C. After 4, 6, 8 and 24 hours of exposure, the mites were scored as alive (moving freely), incapacitated (inhibited movement), or dead (no movement over a 5 second period).\nThe resistant population of H. destructor was collected from a lucerne paddock in the Upper South-East district of South Australia, where resistance to synthetic pyrethroids was confirmed in late 2016.\nThe data produced in the assays were assessed for concentrations that caused 50, 90 and 99% mortality (lethal concentration, LC), together with 95% confidence intervals (CIs) and were estimated from observations of mortality after 24 hours exposure using a binomial logistic regression (Robertson & Preisler, 1992, Pesticide Bioassays with Arthropods. CRC: Boca Raton; Venables & Ripley, 2002, Modern Applied Statistics with S. Springer: New York). Population differences were tested by comparing the change in model deviance with and without the population factor (different regression intercepts for each population). Differences in regression slopes between populations were tested by comparing the change in model deviance with and without the population×dose interaction term. The resistance ratio of the insecticide-resistant population was estimated as the ratio of its LC50 to that of the susceptible population. All analyses were performed using R 3.3. (R Core Team 2017, R: A language and environment for statistical computing. R Foundation for Statistical Computing, Vienna, Austria. http://www.R-project.org)."}, "[3]": {"conditions": "Rhipicephalus microplus, 24 h, Example 2"}, "[4]": {"conditions": "Rhipicephalus microplus, 24 h, Example 3"}, "[5]": {"conditions": "Rhipicephalus microplus, 48 h, Example 4"}, "[6]": {"conditions": "Resistant population, 24 hours exposure"}},
  "data": [
    {"smiles": "CC(C)C(=O)C1C(=O)C(C)(C)C(=O)C(C)(C)C1=O", "note": "[Flavesone, 1-isobutyroyl-3,3,5,5-tetramethylcyclohexane-2,4,6-trione]", "values": [
      {"measurement": "LC50 (ppm)", "setting": "[1]; Example 1, 24 hours", "result": 171, "unit": "ppm"},
      {"measurement": "LC99 (ppm)", "setting": "[1]; Example 1, 24 hours", "result": 3346, "unit": "ppm"},
      {"measurement": "LC50 (ppm)", "setting": "[1]; Example 2, 24 hours", "result": 690, "unit": "ppm"},
      {"measurement": "LC99 (ppm)", "setting": "[1]; Example 2, 24 hours", "result": 1109, "unit": "ppm"},
      {"measurement": "LC50 (ppm)", "setting": "[1]; Example 3, 24 hours", "result": 610, "unit": "ppm"},
      {"measurement": "LC99 (ppm)", "setting": "[1]; Example 3, 24 hours", "result": 1050, "unit": "ppm"},
      {"measurement": "LC50 (ppm)", "setting": "[1]; Example 4, 48 hours", "result": 526, "unit": "ppm"},
      {"measurement": "LC99 (ppm)", "setting": "[1]; Example 4, 48 hours", "result": 923, "unit": "ppm"},
      {"measurement": "mortality at 1 ppm", "setting": "[1]; Rhipicephalus microplus, 24 h, Example 1, 1 ppm", "result": 0, "unit": "%"},
      {"measurement": "mortality at 10 ppm", "setting": "[1]; Rhipicephalus microplus, 24 h, Example 1, 10 ppm", "result": 0.62, "unit": "%"},
      {"measurement": "mortality at 100 ppm", "setting": "[1]; Rhipicephalus microplus, 24 h, Example 1, 100 ppm", "result": 1.82, "unit": "%"},
      {"measurement": "mortality at 1000 ppm", "setting": "[1]; Rhipicephalus microplus, 24 h, Example 1, 1,000 ppm", "result": 97, "unit": "%"},
      {"measurement": "mortality at 10000 ppm", "setting": "[1]; Rhipicephalus microplus, 24 h, Example 1", "result": 100, "unit": "%"},
      {"measurement": "mortality at 100000 ppm", "setting": "[1]; Rhipicephalus microplus, 24 h, Example 1, 100,000 ppm", "result": 100, "unit": "%"},
      {"measurement": "mortality at 2.5 ppm", "setting": "[1]; [3]", "result": 100, "unit": "%"},
      {"measurement": "mortality at 156.25 ppm", "setting": "[1]; Rhipicephalus microplus, 24 h, Example 2, 156.25 ppm", "result": 0, "unit": "%"},
      {"measurement": "mortality at 312.5 ppm", "setting": "[1]; [3]", "result": 0, "unit": "%"},
      {"measurement": "mortality at 625 ppm", "setting": "[1]; [3]", "result": 11.8, "unit": "%"},
      {"measurement": "mortality at 1250 ppm", "setting": "[1]; Rhipicephalus microplus, 24 h, Example 2, 1,250 ppm", "result": 100, "unit": "%"},
      {"measurement": "mortality at 5000 ppm", "setting": "[1]; [3]", "result": 100, "unit": "%"},
      {"measurement": "mortality at 10000 ppm", "setting": "[1]; [3]", "result": 100, "unit": "%"},
      {"measurement": "mortality at 2.5 ppm", "setting": "[1]; [4]", "result": 100, "unit": "%"},
      {"measurement": "mortality at 312.5 ppm", "setting": "[1]; [4]", "result": 1.28, "unit": "%"},
      {"measurement": "mortality at 625 ppm", "setting": "[1]; [4]", "result": 11.8, "unit": "%"},
      {"measurement": "mortality at 1250 ppm", "setting": "[1]; Rhipicephalus microplus, 24 h, Example 3, 1,250 ppm", "result": 100, "unit": "%"},
      {"measurement": "mortality at 5000 ppm", "setting": "[1]; [4]", "result": 100, "unit": "%"},
      {"measurement": "mortality at 312.5 ppm", "setting": "[1]; [5]", "result": 2.17, "unit": "%"},
      {"measurement": "mortality at 625 ppm", "setting": "[1]; [5]", "result": 66.8, "unit": "%"},
      {"measurement": "mortality at 1250 ppm", "setting": "[1]; Rhipicephalus microplus, 48 h, Example 4, 1250 ppm", "result": 100, "unit": "%"},
      {"measurement": "LC50", "setting": "[2]; Halotydeus destructor, 24 h, Resistant population, 24 hours exposure, read-out: LC50 (mg a.i./L)", "result": 34.2, "unit": "µg/mL"},
      {"measurement": "LC50 (mg a.i./L)", "setting": "[2]; [6]", "result": 34.22, "unit": "mg a.i./L"},
      {"measurement": "LC90 (mg a.i./L)", "setting": "[2]; [6]", "result": 117.89, "unit": "mg a.i./L"},
      {"measurement": "LC99 (mg a.i./L)", "setting": "[2]; [6]", "result": 454.76, "unit": "mg a.i./L"},
      {"measurement": "concentration causing 50% mortality", "setting": "[2]; both susceptible and insecticide-resistant populations, 24 hours", "result": "34−40 mg a.i./L"}
    ]}
  ]
}
